Data reported in US20240239755A1, “SUBSTITUTED PYRIDAZINONES, SALTS OR N-OXIDES THEREOF AND THEIR USE AS HERBICIDALLY ACTIVE SUBSTANCES” (Bayer Aktiengesellschaft, priority 2021, published 2024).

Assays:
Type in all cases: in vivo
Lolium rigidum (LOLRI) [1] = experiment: Herbicidal pre-emergence action, 1280 g/ha (Table A5); details: visual grading after ca. 3 weeks vs untreated controls
How it was run: (§1)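 Pre-emergence soil-surface spray, sandy loam, mono-/dicot double sowings per pot; WP or EC formulations, aqueous, +0.5% additive, 600 L/ha water. Greenhouse, optimum conditions. Visual % damage vs untreated at ca. 3 wk (100% = dead).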

Stellaria media (STEME) [2] = experiment: Herbicidal pre-emergence action, 1280 g/ha (Table A9); details: visual grading after ca. 3 weeks vs untreated controls
How it was run: as §1

[3] = system: Amaranthus retroflexus (AMARE); experiment: Herbicidal pre-emergence action, 1280 g/ha (Table A11); details: visual grading after ca. 3 weeks vs untreated controls
How it was run: as §1

[4] = system: Abutilon theophrasti (ABUTH); experiment: Herbicidal post-emergence action, 1280 g/ha (Table B1); details: visual assessment after ca. 3 weeks vs untreated controls
How it was run: (§2)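 Read-out is visual herbicidal effect in percent against untreated controls (100% = dead plants, 0% = like controls), scored about 3 weeks after treatment. Plants at the single-leaf stage were sprayed on green parts with aqueous WP or EC preparations containing 0.5% additive, 600 L water/ha.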

Kochia scoparia (KCHSC) [5] = experiment: Herbicidal post-emergence action, 1280 g/ha (Table B4); details: visual assessment after ca. 3 weeks vs untreated controls
How it was run: as §2

[6] = system: Matricaria inodora (MATIN); experiment: Herbicidal post-emergence action, 1280 g/ha (Table B6); details: visual assessment after ca. 3 weeks vs untreated controls
How it was run: as §2

Stellaria media (STEME) [7] = experiment: Herbicidal post-emergence action, 1280 g/ha (Table B9); details: visual assessment after ca. 3 weeks vs untreated controls
How it was run: as §2

Veronica persica (VERPE) [8] = experiment: Herbicidal post-emergence action, 1280 g/ha, VERPE; details: visual grading vs untreated controls
How it was run: (§3)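 Pot-grown weeds in sandy loam sprayed post-emergence at the single-leaf stage, 2–3 weeks after sowing, with WP or EC formulations plus 0.5% additive in 600 L water/ha at 1280 g/ha. After ca. 3 weeks in the greenhouse, damage scored visually as % effect versus untreated controls (100% = plants dead).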

[9] = system: Amaranthus retroflexus (AMARE); experiment: Herbicidal post-emergence action, 1280 g/ha, AMARE; details: visual grading vs untreated controls
How it was run: as §3

Lolium rigidum (LOLRI) [10] = experiment: Herbicidal pre-emergence action, 320 g/ha (Table C2); details: visual grading after ca. 3 weeks vs untreated controls
How it was run: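 Applied pre-emergence to the surface of soil covering weed seeds sown in sandy loam, as WP or EC formulations in water with 0.5% additive at 600 L/ha. Greenhouse-grown; damage graded visually at ca. 3 weeks as percent of untreated controls (100% = plants died).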

[11] = system: Amaranthus retroflexus (AMARE); experiment: Herbicidal pre-emergence action, 320 g/ha, AMARE; details: visual grading after ca. 3 weeks
From the text: (§4) Seeds of mono- and dicotyledonous weed plants were sown in plastic pots (double sowings with one species of mono- and one species of dicotyledonous weed plants per pot), in sandy loam, and covered with soil. The compounds according to the invention, formulated in the form of wettable powders (WP) or as emulsifiable concentrates (EC), were applied to the surface of the covering soil as an aqueous suspension or as an emulsion, with the addition of 0.5% of an additive, at an application rate of 600 litres of water per hectare (converted). Following treatment, the pots were placed in a greenhouse and kept under optimum growth conditions for the test plants. The visual grading of the damage to the test plants was carried out after ca. 3 weeks in comparison to untreated controls (herbicidal effect in percent (%): 100% effect=plants have died, 0% effect=as control plants).
Tables C1 to C6 below, show the effects of selected compounds of the general formula (I) according to Table 1 on various harmful plants using an application rate corresponding to 320 g/ha obtained by the experimental procedure mentioned above.

[12] = system: Abutilon theophrasti (ABUTH); experiment: Herbicidal post-emergence action, 320 g/ha, ABUTH; details: visual grading after ca. 3 weeks
How it was run: (§5)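 Post-emergence spray at single-leaf stage; WP/EC in aqueous suspension/emulsion, 0.5% additive, 600 L water/ha. Greenhouse ~3 wk, visual rating vs untreated: 0% = as control, 100% = plants dead.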

[13] = system: Amaranthus retroflexus (AMARE); experiment: Herbicidal post-emergence action, 320 g/ha, AMARE; details: visual grading after ca. 3 weeks
How it was run: as §5

Poa annua (POAAN) = experiment: Herbicidal pre-emergence action, 1280 g/ha (Table A7); details: visual grading after ca. 3 weeks vs untreated controls
From the text: as §4, with “plants). Tables A1 to A11 below, show the effects of selected compounds of the general formula (I) according to Table 1 on various harmful plants and an application rate corresponding to 1280 g/ha obtained by the experimental procedure mentioned above.” for “plants).”

Lolium rigidum (LOLRI) [14] = experiment: Herbicidal post-emergence action, 1280 g/ha (Table B5); details: visual assessment after ca. 3 weeks vs untreated controls
How it was run: as §2

Kochia scoparia (KCHSC) [15] = experiment: Herbicidal post-emergence action, 320 g/ha, KCHSC; details: visual grading after ca. 3 weeks
How it was run: as §5

Stellaria media (STEME) [16] = experiment: Herbicidal post-emergence action, 320 g/ha, STEME; details: visual grading after ca. 3 weeks
How it was run: as §5

Veronica persica (VERPE) [17] = experiment: Herbicidal post-emergence action, 320 g/ha, VERPE; details: visual grading after ca. 3 weeks
How it was run: as §5

[18] = system: Abutilon theophrasti (ABUTH); experiment: Herbicidal pre-emergence action, 1280 g/ha (Table A1); details: visual grading after ca. 3 weeks vs untreated controls
How it was run: as §1

[19] = system: Matricaria inodora (MATIN); experiment: Herbicidal pre-emergence action, 1280 g/ha (Table A6); details: visual grading after ca. 3 weeks vs untreated controls
How it was run: as §1

Setaria viridis (SETVI) [20] = experiment: Herbicidal pre-emergence action, 1280 g/ha (Table A8); details: visual grading after ca. 3 weeks vs untreated controls
From the text: as §4, with “plants). Tables A1 to A11 below, show the effects of selected compounds of the general formula (I) according to Table 1 on various harmful plants and an application rate corresponding to 1280 g/ha obtained by the experimental procedure mentioned above.” for “plants).”

Setaria viridis (SETVI) [21] = experiment: Herbicidal post-emergence action, 1280 g/ha (Table B8); details: visual assessment after ca. 3 weeks vs untreated controls
From the text: (§6) Seeds of mono- and dicotyledonous weed plants were sown in plastic pots (double sowings with one species of mono- and one species of dicotyledonous weed plants per pot), in sandy loam, covered with soil and grown under controlled growth conditions. 2 to 3 weeks after sowing, the test plants were sprayed in the single-leaf stage. The compounds according to the invention, formulated in the form of wettable powders (WP) or as emulsifiable concentrates (EC), were sprayed onto the green plant parts as an aqueous suspension or as an emulsion, with the addition of 0.5% of an additive, at an application rate of 600 litres of water per hectare (converted). The test plants were placed in the greenhouse for ca. 3 weeks under optimum growth conditions, and then the effect of the preparations was assessed visually in comparison with untreated controls (herbicidal effect in percent (%): 100% effect=plants have died, 0% effect=as control plants). Tables B1 to B11 below, show the effects of selected compounds of the general formula (I) according to Table 1 on various harmful plants using an application rate corresponding to 1280 g/ha obtained by the experimental procedure mentioned above.

Stellaria media (STEME) [22] = experiment: Herbicidal pre-emergence action, 320 g/ha, STEME; details: visual grading after ca. 3 weeks
How it was run: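 Weed seeds sown in sandy loam pots; WP or EC formulations applied pre-emergence to the covering soil surface at 320 g/ha with 0.5% additive in 600 L water/ha. Greenhouse growth; visual damage scored after ca. 3 weeks versus untreated controls (100% = plants died, 0% = as control).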

Lolium rigidum (LOLRI) [23] = experiment: Herbicidal post-emergence action, 320 g/ha, LOLRI; details: visual grading after ca. 3 weeks
From the text: as §6, with “plants).” for “plants). Tables B1 to B11 below, show the effects of selected compounds of the general formula (I) according to Table 1 on various harmful plants using an application rate corresponding to 1280 g/ha obtained by the experimental procedure mentioned above.”
Tables D1 to D8 below, show the effects of selected compounds of the general formula (I) according to Table 1 on various harmful plants using an application rate corresponding to 320 g/ha obtained by the experimental procedure mentioned above.

[24] = system: Matricaria inodora (MATIN); experiment: Herbicidal post-emergence action, 320 g/ha, MATIN; details: visual grading after ca. 3 weeks
How it was run: as §5

Kochia scoparia (KCHSC) [25] = experiment: Herbicidal pre-emergence action, 1280 g/ha (Table A4); details: visual grading after ca. 3 weeks vs untreated controls
How it was run: as §1

SMILES	herbicidal effect LOLRI (Lolium rigidum (LOLRI) [1])	herbicidal effect STEME (Stellaria media (STEME) [2])	herbicidal effect AMARE [3]	herbicidal effect ABUTH [4]	herbicidal effect KCHSC (Kochia scoparia (KCHSC) [5])	herbicidal effect MATIN [6]	herbicidal effect STEME (Stellaria media (STEME) [7])	herbicidal effect VERPE (Veronica persica (VERPE) [8])	herbicidal effect AMARE [9]	herbicidal effect LOLRI (Lolium rigidum (LOLRI) [10])	herbicidal effect AMARE [11]	herbicidal effect ABUTH [12]	herbicidal effect AMARE [13]	herbicidal effect LOLRI (Lolium rigidum (LOLRI) [14])	herbicidal effect KCHSC (Kochia scoparia (KCHSC) [15])	herbicidal effect STEME (Stellaria media (STEME) [16])	herbicidal effect VERPE (Veronica persica (VERPE) [17])	herbicidal effect MATIN [19]	herbicidal effect SETVI (Setaria viridis (SETVI) [21])	herbicidal effect MATIN [24]	other results
Cc1nn(C)c(=O)c(Oc2ccc(F)cc2C2CC2)c1O [Example I-033]	100%	90%	90%	90%	90%	90%	90%	90%	100%	100%	90%	90%	90%	–	–	–	–	–	–	–	–
Cc1nn(C)c(=O)c(Oc2ccccc2Cl)c1O [Example I-003]	100%	100%	90%	90%	100%	100%	100%	100%	100%	–	90%	–	90%	90%	90%	90%	100%	–	–	–	herbicidal effect POAAN (Poa annua (POAAN)): 90%
CCOC(=O)Oc1c(C)nn(C)c(=O)c1Oc1cc(F)ccc1C1CC1 [Example I-045]	100%	100%	100%	100%	90%	100%	100%	100%	100%	90%	–	100%	90%	100%	90%	90%	100%	90%	90%	90%	herbicidal effect ABUTH [18]: 90%; herbicidal effect SETVI (Setaria viridis (SETVI) [20]): 90%; herbicidal effect STEME (Stellaria media (STEME) [22]): 90%; herbicidal effect LOLRI (Lolium rigidum (LOLRI) [23]): 100%
CCOC(=O)Oc1c(C)nn(C)c(=O)c1Oc1cc(F)c(F)cc1Br [Example I-093]	–	–	90%	90%	–	90%	90%	90%	100%	–	–	–	–	–	–	–	–	90%	90%	90%	herbicidal effect KCHSC (Kochia scoparia (KCHSC) [25]): 90%
CCOC(=O)Oc1c(C)nn(C)c(=O)c1Oc1ccc(Cl)cc1C1CC1 [Example I-036]	90%	100%	–	90%	90%	90%	90%	90%	100%	–	–	90%	90%	90%	90%	–	–	100%	90%	–	–
